Laboratory results taken from PubChem BioAssay (NCI).
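Test compounds were applied to cells in 96-well plates for 48 hours at 5 doses. GI50: concentration for 50% inhibition of growth. TGI denotes the concentration required for complete inhibition of growth.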 Where a SMILES comes first, the peptide text is derived from it. [ ]: non-standard residue; d: D form. Phe(4-Cl) = N[CH](Cc1ccc(Cl)cc1)C(=O)O

How the values were obtained:
Experiment in all cases: growth of human tumour cells (NCI), 48 h
NCI-H23 lung = system: NCI-H23 lung
OVCAR-3 ovarian = system: OVCAR-3 ovarian
HCT-15 colon = system: HCT-15 colon
UACC-62 melanoma = system: UACC-62 melanoma
HT29 colon = system: HT29 colon
RXF 393 renal = system: RXF 393 renal
SW-620 colon = system: SW-620 colon
SK-MEL-5 melanoma = system: SK-MEL-5 melanoma
MALME-3M melanoma = system: MALME-3M melanoma
MDA-MB-435 = system: MDA-MB-435

SMILES | TGI (NCI-H23 lung) | TGI (OVCAR-3 ovarian) | TGI (HCT-15 colon) | TGI (UACC-62 melanoma) | TGI (HT29 colon) | TGI (RXF 393 renal) | TGI (SW-620 colon) | TGI (SK-MEL-5 melanoma) | TGI (MALME-3M melanoma) | TGI (MDA-MB-435) | GI50 (NCI-H23 lung) | GI50 (OVCAR-3 ovarian) | GI50 (MDA-MB-435) | GI50 (SW-620 colon) | GI50 (HCT-15 colon) | GI50 (UACC-62 melanoma) | GI50 (HT29 colon) | GI50 (SK-MEL-5 melanoma) | GI50 (MALME-3M melanoma) | GI50 (RXF 393 renal)
CC(O)C(NC(=O)C(Cc1ccccc1)NC(=O)C(NC(=O)C(CCCCN)NC(=O)C(Cc1c[nH]c2ccccc12)NC(=O)C(Cc1ccc(O)cc1)NC(=O)C(Cc1ccc(Cl)cc1)NC(=O)C(N)Cc1ccccc1)C(C)O)C(N)=O (stereo unspecified) (H-F[Phe(4-Cl)]YWKTFT-NH2; configuration not given here) | 41.2 µM | 36.2 µM | 41.5 µM | 39.8 µM | 62.8 µM | 30.3 µM | – | – | – | – | – | – | – | – | – | – | – | – | – | –
CC(C)(C)OC(=O)Cc1ccc2c(ccn2Cc2ccccc2)c1 | > 100 µM | > 100 µM | > 100 µM | > 100 µM | 36.4 µM | > 100 µM | > 100 µM | > 100 µM | > 100 µM | – | – | – | – | – | – | – | – | – | – | –
Cc1ccccc1N(CCC#N)C1=NN(C(=O)CC(=O)Nc2ccccc2)C(c2ccccc2)C1 (stereo unspecified) | > 100 µM | > 100 µM | > 100 µM | > 100 µM | > 100 µM | > 100 µM | > 100 µM | > 100 µM | > 100 µM | – | – | – | – | – | – | – | – | – | – | –
O=c1cccccc1NCCCNc1cccccc1=O | > 100 µM | > 100 µM | > 100 µM | > 100 µM | > 100 µM | > 100 µM | > 100 µM | – | 39.2 µM | – | – | – | – | – | – | – | – | – | – | –
O=C1c2ccccc2-c2c1c1ccccc1c(=O)n2Cc1ccccc1 | > 100 µM | > 100 µM | > 100 µM | > 100 µM | > 100 µM | – | > 100 µM | > 100 µM | > 100 µM | > 100 µM | – | – | – | – | – | – | – | – | – | –
CCOC(=O)c1c(CN2CCN(c3ccccc3)CC2)n(-c2ccccc2)c2cc(Br)c(O)cc12 | 38.3 µM | 32.1 µM | 38.6 µM | 29.6 µM | 32.5 µM | – | 48 µM | 23.1 µM | 40.1 µM | 34.4 µM | 14.9 µM | 13 µM | 11.3 µM | 6.32 µM | 11.3 µM | 16.1 µM | 11.8 µM | 8.82 µM | 16.5 µM | –
COc1ccc(C(=O)c2cc(C)c(OC)c(C)c2)c(OC)c1N(C(=O)C(Cl)Cl)C(=O)C(Cl)Cl | > 100 µM | – | > 100 µM | > 100 µM | > 40.6 µM | – | > 100 µM | 2.14 µM | > 100 µM | 0.0625 µM | 0.0909 µM | 0.0357 µM | 0.021 µM | 0.0426 µM | 0.0617 µM | 0.0605 µM | 0.323 µM | 0.0509 µM | 0.129 µM | –
CN(C)CC/C(=N\Nc1c(Cl)cccc1Cl)c1ccccc1 | 33.4 µM | 65.9 µM | 35.6 µM | 29.9 µM | 29.3 µM | 28.5 µM | 36.8 µM | 29.5 µM | 43.6 µM | – | – | – | – | – | – | – | – | – | – | –
Cc1cn2c(/C=C3/C(=O)N(C)c4ccccc43)c(C)nc2s1 | > 100 µM | – | > 100 µM | 97.9 µM | > 100 µM | > 100 µM | > 100 µM | 25.5 µM | > 100 µM | – | 16.2 µM | – | – | 4.3 µM | 5.25 µM | 12.2 µM | 3.58 µM | 4.71 µM | 54.3 µM | 53.8 µM
